These results are taken from patent EP4682145A1, “BENZOHETEROCYCLIC COMPOUND, AND PREPARATION METHOD THEREFOR AND USE THEREOF” (Cascade Pharmaceuticals, Inc., priority 2023, dated 2024).

Structures are written as SMILES.

The target of this assay is T1, human FFAR1 (GPR40) (Homo sapiens, UniProt O14842).
T1 construct: Flag; expressed in transfected cells; host or cells: HEK293T
Kind of assay: NFAT-RE-based reporter gene activity assay (Dual-Glo luciferase) for GPR40 agonistic activity in co-transfected HEK293T cells. The assay is classed as cell-based. Conditions: 4-hour treatment; for Efficacy (%): class symbols. The method, boiled down: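 Agonism read as NFAT-RE-driven firefly luciferase over Renilla control (Dual-Glo) after 4 h compound exposure, top concentration 1 µM, 10 half-log steps.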
(In general: A reporter such as luciferase makes a cellular process visible.)

T1 sequence (O14842 whole entry): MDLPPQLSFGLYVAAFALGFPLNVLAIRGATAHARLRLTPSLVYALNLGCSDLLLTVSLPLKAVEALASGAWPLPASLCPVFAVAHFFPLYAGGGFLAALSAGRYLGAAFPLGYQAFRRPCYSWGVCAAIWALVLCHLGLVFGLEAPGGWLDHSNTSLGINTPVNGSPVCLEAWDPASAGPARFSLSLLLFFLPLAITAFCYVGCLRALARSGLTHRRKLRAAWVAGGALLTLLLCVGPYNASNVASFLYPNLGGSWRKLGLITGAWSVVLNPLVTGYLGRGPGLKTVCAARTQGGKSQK

Take `COc1cccc(N2CCC(c3oc4cc([C@H](C5CC5)C(C)C(=O)O)ccc4c3-c3cnn(C(C)(C)C)c3)CC2)c1` (some centres unmarked) [Compound 55]: the EC50 (in general, the concentration giving half of the maximal effect) is no more than 0.01 µM and the “Efficacy (%)” value is recorded as “†† (150 ≥ Efficacy (%) > 100)”.

Take `COc1cccc(N2CCC(c3oc4cc(C(CC(=O)O)C5CC5)ccc4c3C(=CCC(C)C)c3ccccc3)CC2)c1` (centres unmarked) [Compound 377]: the EC50 is 0.01 to 0.1 µM and the “Efficacy (%)” value is listed as “†† (150 ≥ Efficacy (%) > 100)”.

With `COc1cccc(N2CCC(c3oc4cc(C(CC(=O)O)C5CC5)ccc4c3C(=O)Nc3c(F)cc(F)cc3F)CC2)c1` (centres unmarked) [Compound 288], the EC50 was in the range of 0.1 to 0.5 µM and the “Efficacy (%)” value is “†† (150 ≥ Efficacy (%) > 100)”.

`CCCCCCCC(C)(C)c1nnc(-c2c(C3CCN(c4cccc(OC)c4)CC3)oc3cc(C(CC(=O)O)C4CC4)ccc23)o1` (centres unmarked) [Compound 451]: the half-maximal effective concentration (EC50) fell in the range of 0.01 to 0.1 µM and the “Efficacy (%)” value was “†† (150 ≥ Efficacy (%) > 100)”.

For `Cc1ccccc1N1CCC(c2oc3cc(C(CC(=O)O)C4CC4)ccc3c2-c2cccc(C(C)(C)C)c2)CC1` (centres unmarked) [Compound 5], the concentration giving a half-maximal response (EC50) fell in the range of 0.1 to 0.5 µM and the “Efficacy (%)” value is recorded as “††† (Efficacy (%) > 150)”.

In the case of `COc1ccc(F)c(N2CCC(c3oc4cc([C@H](C5CC5)C(C)C(=O)O)ccc4c3-c3ccc(C(C)(C)C)cc3)CC2)c1` (some centres unmarked) [Compound 218], the EC50 fell in the range of 0.1 to 0.5 µM and the “Efficacy (%)” value is given as “††† (Efficacy (%) > 150)”.

With `COc1ccc(F)c(N2CCC(c3oc4cc([C@@H](CC(=O)O)C5CC5)ccc4c3/C=C/C(C)(C)O)CC2)c1` [Compound 369], the EC50 was 0.1 to 0.5 µM and the “Efficacy (%)” value is on record as “† (100 ≥ Efficacy (%) > 50)”.

Take `COc1ccc(F)c(N2CCC(c3oc4cc(C(CC(=O)O)C5CC5)ccc4c3-c3ccccc3)CC2)c1` (centres unmarked) [Compound 156]: the concentration giving a half-maximal response (EC50) lay in the range of 0.1 to 0.5 µM and the “Efficacy (%)” value is “†† (150 ≥ Efficacy (%) > 100)”.

Consider `CC(C)(C)c1ccc(-c2c(C3CCN(c4ccc5c(c4)OCO5)CC3)oc3cc([C@@H](CC(=O)O)C4CC4)ccc23)cc1` [Compound 213], for which the EC50 was in the range of 0.01 to 0.1 µM and the “Efficacy (%)” value is listed as “†† (150 ≥ Efficacy (%) > 100)”.

`COc1cccc(N2CCC(c3oc4cc([C@@H](CC(=O)O)C5CC5)ccc4c3C(C)OCC[C@@H](C)CCC=C(C)C)CC2)c1` (some centres unmarked) [Compound 415]: the EC50 was greater than 0.5 µM and the “Efficacy (%)” value is listed as “††† (Efficacy (%) > 150)”.

`COc1cccc(N2CCC(c3oc4cc([C@@H](CC(=O)O)C5CC5)ccc4c3C(O)C(C)(C)C)CC2)c1` (some centres unmarked) [Compound 423]: the EC50 was in the range of 0.1 to 0.5 µM and the “Efficacy (%)” value was “† (100 ≥ Efficacy (%) > 50)”.

Take `COc1ccc(F)c(N2CCC(c3oc4cc(C(CC(=O)O)C5CC5)ccc4c3C(=O)Nc3cccc(C)c3)CC2)c1` (centres unmarked) [Compound 320]: the half-maximal effective concentration (EC50) was 0.01 to 0.1 µM and the “Efficacy (%)” value was “†† (150 ≥ Efficacy (%) > 100)”.

Turning to `COc1cccc(N2CCC(c3oc4cc(C(CC(=O)O)C5CC5)ccc4c3-c3nnc(C(C)C)o3)CC2)c1` (centres unmarked) [Compound 123], the EC50 fell in the range of 0.1 to 0.5 µM and the “Efficacy (%)” value is “†† (150 ≥ Efficacy (%) > 100)”.

Take `CCCCC(C)c1c(C2CCN(c3cccc(OC)c3)CC2)oc2cc([C@@H](CC(=O)O)C3CC3)ccc12` (some centres unmarked) [Compound 384]: the EC50 fell in the range of 0.1 to 0.5 µM and the “Efficacy (%)” value is reported as “†† (150 ≥ Efficacy (%) > 100)”.

For `COc1cccc(N2CCC(c3oc4cc(C(CC(=O)O)C5CC5)ccc4c3C(=O)Nc3c(F)cccc3C(F)(F)F)CC2)c1` (centres unmarked) [Compound 263], the EC50 was in the range of 0.1 to 0.5 µM and the “Efficacy (%)” value is given as “†† (150 ≥ Efficacy (%) > 100)”.

As to `COc1cccc(N2CCC(c3oc4cc([C@@H](CC(=O)O)C5CC5)ccc4c3C(=O)Nc3cc(F)ccc3F)CC2)c1` [Compound 257], the EC50 was no more than 0.01 µM and the “Efficacy (%)” value was “††† (Efficacy (%) > 150)”.

In the case of `CC(C)(C)c1cccc(-c2c(C3CCN(c4cccc(C(F)(F)F)c4)CC3)oc3cc(C(CC(=O)O)C4CC4)ccc23)c1` (centres unmarked) [Compound 20], the EC50 lay within 0.1 to 0.5 µM and the “Efficacy (%)” value is “†† (150 ≥ Efficacy (%) > 100)”.

For the molecule `CC(C)(C)n1cc(-c2c(C3CCN(c4ccc5c(c4)OC(F)(F)O5)CC3)oc3cc([C@@H](CC(=O)O)C4CC4)ccc23)cn1` [Compound 96], the EC50 fell in the range of 0.1 to 0.5 µM and the “Efficacy (%)” value is recorded as “††† (Efficacy (%) > 150)”.

Consider `COc1ccc(C(=O)N(C)CC(C)(C)C)c(N2CCC(c3oc4cc([C@@H](CC(=O)O)C5CC5)ccc4c3-c3cnn(C(C)(C)C)c3)CC2)c1` [Compound 92], for which the EC50 was 0.1 to 0.5 µM and the “Efficacy (%)” value is “††† (Efficacy (%) > 150)”.

For `COc1ccc(F)c(N2CCC(c3oc4cc([C@@H](CC(=O)O)C5CC5)ccc4c3C(=O)Nc3cc(Cl)ccc3F)CC2)c1` [Compound 338], the EC50 was 0.01 to 0.1 µM and the “Efficacy (%)” value is given as “†† (150 ≥ Efficacy (%) > 100)”.

For `COc1ccc(F)c(N2CCC(c3oc4cc([C@H](C5CC5)C(C)C(=O)O)ccc4c3-c3cccc(C(C)(C)C)c3)CC2)c1` (some centres unmarked) [Compound 217], the EC50 was 0.01 to 0.1 µM and the “Efficacy (%)” value is “†† (150 ≥ Efficacy (%) > 100)”.

On to `COc1cccc(N2CCC(c3oc4cc(C(CC(=O)O)C5CC5)ccc4c3-c3cnn(C(C)(C)C)c3)CC2)c1Cl` (centres unmarked) [Compound 88], for which the EC50 was 0.1 to 0.5 µM and the “Efficacy (%)” value was “†† (150 ≥ Efficacy (%) > 100)”.

As for `CNC(=O)c1cc(-c2c(C3CCN(c4cccc(OC)c4)CC3)oc3cc(C(CC(=O)O)C4CC4)ccc23)cn1C` (centres unmarked) [Compound 82], the EC50 lay in the range of 0.1 to 0.5 µM and the “Efficacy (%)” value is reported as “† (100 ≥ Efficacy (%) > 50)”.

As for `COc1ccc(F)c(N2CCC(c3oc4cc([C@@H](CC(=O)O)C5CC5)ccc4c3CCCC3CC3)CC2)c1` [Compound 391], the EC50 was 0.1 to 0.5 µM and the “Efficacy (%)” value is “†† (150 ≥ Efficacy (%) > 100)”.

For the molecule `COc1ccc(F)c(N2CCC(c3oc4cc(C(CC(=O)O)C5CC5)ccc4c3C(=O)NCC3CC3)CC2)c1` (centres unmarked) [Compound 309], the EC50 was in the range of 0.1 to 0.5 µM and the “Efficacy (%)” value was “†† (150 ≥ Efficacy (%) > 100)”.

For the molecule `COc1cccc(N2CCC(c3oc4cc([C@@H](CC(=O)O)C5CC5)ccc4c3-c3cccc(C)n3)CC2)c1` [Compound 147], the 50% effective concentration (EC50) fell in the range of 0.01 to 0.1 µM and the “Efficacy (%)” value is “††† (Efficacy (%) > 150)”.

Consider `COc1cccc(N2CCC(c3oc4cc(C(CC(=O)O)C5CC5)ccc4c3C(=O)Nc3noc4ccccc34)CC2)c1` (centres unmarked) [Compound 296], for which the EC50 fell in the range of 0.1 to 0.5 µM and the “Efficacy (%)” value was “††† (Efficacy (%) > 150)”.

Turning to `COc1cccc(N2CCC(c3oc4cc([C@@H](CC(=O)O)C5CC5)ccc4c3C(O)c3ccccc3)CC2)c1` (some centres unmarked) [Compound 424], the EC50 is greater than 0.5 µM and the “Efficacy (%)” value is recorded as “†† (150 ≥ Efficacy (%) > 100)”.

Consider `COc1cccc(N2CCC(c3oc4cc(C(CC(=O)O)C5CC5)ccc4c3C(=O)Nc3ccc(C)cc3F)CC2)c1` (centres unmarked) [Compound 251], for which the EC50 lay in the range of 0.1 to 0.5 µM and the “Efficacy (%)” value is reported as “†† (150 ≥ Efficacy (%) > 100)”.

As for `COc1cccc(N2CCC(c3oc4cc([C@@H](CC(=O)O)C5CC5)ccc4c3C(OCC(C)C)c3ccccc3C)CC2)c1` (some centres unmarked) [Compound 429], the EC50 was 0.1 to 0.5 µM and the “Efficacy (%)” value is “††† (Efficacy (%) > 150)”.

Consider `COc1ccc(OC)c(N2CCC(c3oc4cc(C(CC(=O)O)C5CC5)ccc4c3-c3cnn(C(C)(C)C)c3)CC2)c1` (centres unmarked) [Compound 85], for which the EC50 lay in the range of 0.1 to 0.5 µM and the “Efficacy (%)” value is “†† (150 ≥ Efficacy (%) > 100)”.
